Results taken from patent US20120100989A1, “3-Aryl-4-(2-thienylmethylene)isoxazol-5(4H)-ones as Fungicides” (Bayer CropScience AG, priority 2010, published 2012).

How the values were obtained:
[1] = tested on: caterpillars of the armyworm (Spodoptera frugiperda); assay: Spodoptera frugiperda test (spray treatment); type: in vivo; conditions: maize leaf discs, application rate 500 g/ha
Experimental: Example J Spodoptera Frugiperda Test (Spray Treatment) [table] To produce a suitable preparation of active compound, 1 part by weight of active compound is mixed with the stated amounts of solvent and emulsifier, and the concentrate is diluted with emulsifier-containing water to the desired concentration. Discs of maize leaves (Zea mays) are sprayed with an active compound preparation of the desired concentration and, after drying, populated with caterpillars of the armyworm (Spodoptera frugiperda). After the desired period of time, the effect in % is determined. 100% means that all caterpillars have been killed; 0% means that none of the caterpillars have been killed.

[2] = log P by HPLC on reversed-phase columns (C 18), EEC directive 79/831 Annex V.A8; type: physicochemical; conditions: for log P: pH 2.7
Experimental: The log P values were measured according to EEC directive 79/831 Annex V.A8 by HPLC (High Performance Liquid Chromatography) on reversed-phase columns (C 18), using the method below:
The determination was carried out in the acidic range at pH 2.7 using the mobile phases 0.1% aqueous formic acid and acetonitrile; linear gradient from 10% acetonitrile to 95% acetonitrile.

Phytophthora infestans = type: in vivo; conditions: protective, 100 ppm active compound, evaluation 3 days after inoculation
Alternaria solani = assay: Alternaria test (tomato)/protective; type: in vivo; conditions: protective, 500 ppm active compound, evaluation 7 days after inoculation
Experimental: Alternaria Test (Tomato)/Protective [table] To produce a suitable preparation of active compound, 1 part by weight of active compound is mixed with the stated amounts of solvent and emulsifier, and the concentrate is diluted with water to the desired concentration. To test for protective activity, young tomato plants are sprayed with the active compound preparation at the stated application rate. 1 day after the treatment, the plants are inoculated with a spore suspension of Alternaria solani and then remain at 100% relative humidity and 20° C. for 24 h. The plants then remain at 96% relative atmospheric humidity and a temperature of 20° C.

Plasmopara viticola = assay: Plasmopara test (grapevine)/protective; type: in vivo; conditions: protective, 100 ppm active compound, evaluation 6 days after inoculation
Experimental: Plasmopara Test (Grapevine)/Protective [table] To produce a suitable preparation of active compound, 1 part by weight of active compound is mixed with the stated amounts of solvent and emulsifier, and the concentrate is diluted with water to the desired concentration. To test for protective activity, young plants are sprayed with the active compound preparation at the stated application rate. After the spray coating has dried on, the plants are inoculated with an aqueous spore suspension of Plasmopara viticola and then remain in an incubation cabin at about 20° C. and 100% relative atmospheric humidity for 1 day. The plants are then placed in a greenhouse at about 21° C. and about 90% atmospheric humidity for 4 days. The plants are then moistened and placed in an incubation cabin for 1 day.

Venturia inaegualis = assay: Venturia test (apple)/protective; type: in vivo; conditions: protective, 100 ppm active compound, evaluation 10 days after inoculation
Experimental: Venturia Test (Apple)/Protective [table] To produce a suitable preparation of active compound, 1 part by weight of active compound is mixed with the stated amounts of solvent and emulsifier, and the concentrate is diluted with water to the desired concentration. To test for protective activity, young plants are sprayed with the active compound preparation at the stated application rate. After the spray coating has dried on, the plants are inoculated with an aqueous conidia suspension of the apple scab pathogen Venturia inaegualis and then remain in an incubation cabin at about […] and 100% relative atmospheric humidity for 1 day. The plants are then placed in the greenhouse at about 21° C. and a relative atmospheric humidity of about 90%.

[3] = tested on: Blumeria graminis f sp. tritici; assay: Blumeria test (wheat)/protective; type: in vivo; conditions: protective, 1000 ppm active compound, evaluation 7 days after inoculation
Experimental: Blumeria Test (Wheat)/Protective [table] To produce a suitable preparation of active compound, 1 part by weight of active compound is mixed with the stated amounts of solvent and emulsifier, and the concentrate is diluted with water to the desired concentration. To test for protective activity, young plants are sprayed with the active compound preparation at the stated application rate. After the spray coating has dried on, the plants are dusted with spores of Blumeria graminis f sp. tritici.

| SMILES | activity (caterpillars killed) [1] | log P [2] | further results |
| --- | --- | --- | --- |
| CC(C)Oc1ccc(C2=NOC(=O)C2=Cc2cccs2)cc1 [I-79] | 80% | 3.73 | – |
| Cc1ccc(C2=NOC(=O)C2=Cc2cccs2)cc1 [U-2] | 80% | 3.32 | – |
| O=C1ON=C(c2ccccc2)C1=Cc1cccs1 [U-1] | 80% | – | – |
| O=C1ON=C(c2ccc(C(F)(F)F)cc2)C1=Cc1cccs1 [I-56] | 80% | 3.68 | – |
| COc1cccc(C2=NOC(=O)C2=Cc2ccc(C)s2)c1 [U-12] | 80% | 3.34 | – |
| Cc1ccc(C=C2C(=O)ON=C2c2ccc(F)cc2)s1 [I-33] | 80% | 3.34 | – |
| CC(C)(C)c1ccc(C2=NOC(=O)C2=Cc2cccs2)cc1 [I-29] | 80% | 4.39 | – |
| COc1ccc(C2=NOC(=O)C2=Cc2ccc(C)s2)cc1 [U-9] | 80% | 3.28 | – |
| CC1=NOC(=O)/C1=C\c1ccco1 [A-8] | – | – | efficacy (Phytophthora infestans): 0%; efficacy (Alternaria solani): 0%; efficacy (Plasmopara viticola): 28%; efficacy (Venturia inaegualis): 6%; efficacy [3]: 29% |
| O=C1ON=C(c2ccc(Cl)cc2)C1=Cc1cccs1 [I-5] | 80% | 3.44 | – |
| CCOc1ccc(C2=NOC(=O)C2=Cc2cccs2)cc1 [I-58] | 80% | 3.41 | – |
| COc1ccc(C2=NOC(=O)/C2=C\c2cccs2)cc1 [U-38] | 80% | 2.95 | – |
| Cc1ccsc1C=C1C(=O)ON=C1c1ccc(F)cc1 [I-32] | 80% | 3.26 | – |
| COc1ccccc1C1=NOC(=O)/C1=C\c1cccs1 [U-39] | 80% | 2.75 | – |
| COc1ccc(C2=NOC(=O)C2=Cc2ccc(Cl)s2)cc1 [I-43] | 80% | 3.70 | – |
| O=C1ON=C(c2ccc(OC(F)(F)F)cc2)C1=Cc1cccs1 [I-55] | 80% | 3.80 | – |
| COc1ccc(C2=NOC(=O)C2=Cc2cccs2)cc1 [U-37] | 80% | 2.95 | – |
| O=C1ON=C(c2ccc(F)cc2)C1=Cc1cc(Br)cs1 [I-30] | 80% | 3.76 | – |
| Cc1ccc(C2=NOC(=O)C2=Cc2ccc(C)s2)cc1 [U-10] | 80% | 3.67 | – |
| CC(C)(C)c1ccc(C2=NOC(=O)C2)cc1 [3-(4-tert-butylphenyl)isoxazol-5(4H)-one] | – | – | chromatographic logP ([2]; reversed-phase C18 HPLC column, preparation examples, HPLC, acidic range pH 2.7, formic acid, read-out: log P (HCOOH)): 3.1 |
| Cc1ccc(C=C2C(=O)ON=C2c2ccccc2OCc2ccccc2)s1 [I-115] | – | 3.98 | – |
| O=C1ON=C(c2ccccc2Cl)C1=Cc1cc(Br)c(Br)s1 [I-17] | – | 4.64 | – |
| COc1cccc(OC)c1C1=NOC(=O)C1=Cc1cccs1 [U-22] | – | 2.79 | – |
| Cc1cc(C)cc(C2=NOC(=O)C2=Cc2ccc(C)s2)c1 [I-87] | – | 4.08 | – |
| Cc1cccc(C2=NOC(=O)C2=Cc2sccc2C)c1 [I-86] | – | 3.60 | – |
| O=C1ON=C(c2ccc(Cl)cc2)C1=Cc1ccc([N+](=O)[O-])s1 [I-51] | – | 3.70 | – |
| Cc1ccsc1C=C1C(=O)ON=C1c1cc(Br)ccc1Br [I-125] | – | 4.02 | – |
